Legend:
RBCs [1] = assay: Recovery of RBCs following freezing/thawing; assay type: cell-based, pig or human; details: for cell recovery rate (structurally intact RBCs) after freezing/thawing: frozen at -80° C.
Description: (§1) In vitro experiments have been performed to validate the methods and systems described herein. Briefly, a 0.5 mL solution containing pig or human RBCs, 200 mM trehalose, and microbubbles was placed in a conical tube and sonicated with a 2.5-MHz clinical ultrasound probe for 70 seconds (Philips 4-1 on a Verasonics Vantage 64LE ultrasound imaging system). […] Following sonication, samples were dried (FIG. 5A-B), frozen at −80° C., or freeze-dried for 1 week. Upon thawing or rehydration, the percentage of structurally intact RBCs was counted (FIG. 6A-B). Cell recovery rates of up to 85% were achieved after freezing/thawing, compared to less than 40% without sonoporation. Cell recovery rates of up to 12% were achieved after freeze-drying/rehydration, compared to 0% without sonoporation. Although the recovery is still low, this was believed to be a significant result given that not a single RBC was recovered from freeze-dried samples that had not been treated with sonoporation. […] The microfluidic sonoporation device can further improve the recovery rates by enabling consistent and precise trehalose delivery to each cell. This device is also effective in processing RBCs for long-term preservation in a frozen or freeze-dried state.

red blood cells = assay: Microscopy of dried red blood cells after rehydration; assay type: cell-based; details: after loading with trehalose; confocal image
Description: FIG. 5A-B includes microscopic images of dried red blood cells without trehalose (A) and after loading with trehalose (B).
as §1

RBCs [2] = assay: Recovery of RBCs following freeze-drying/rehydration; assay type: cell-based, pig or human
Description: as §1

RBCs [3] = assay: Recovery of RBCs 24 hours after sonoporation (toxicity); assay type: cell-based, pig or human; details: 200 mM trehalose, microbubbles, 2.5-MHz ultrasound 70 seconds
Description: as §1

Structure (SMILES): OC[C@H]1O[C@H](O[C@H]2O[C@H](CO)[C@@H](O)[C@H](O)[C@H]2O)[C@H](O)[C@@H](O)[C@@H]1O [trehalose]
- cell recovery rate (structurally intact RBCs) after freezing/thawing (RBCs [1]; 200 mM trehalose with sonoporation): up to 85%
- recovery rate for frozen cells (RBCs [1]; after small changes to the cell media composition, frozen cells): above 85%
- cell recovery rate (structurally intact RBCs) after freezing/thawing (RBCs [1]; without sonoporation): less than 40%
- shape of dried blood cells after rehydration (red blood cells): maintain shape after rehydration
- cell recovery rate (structurally intact RBCs) after freeze-drying/rehydration (RBCs [2]; 200 mM trehalose with sonoporation, freeze-dried for 1 week): up to 12%
- recovery rate after freeze-drying, improved technique (RBCs [2]; after small changes to the cell media composition and freeze-drying parameters): above 12%
- recovery after freeze-drying, initial experiments (RBCs [2]; initial experiments (data not shown)): less than 8%
- cell recovery rate (structurally intact RBCs) after freeze-drying/rehydration (RBCs [2]; without sonoporation, freeze-dried): 0%
- cell recovery 24 hours after sonication (RBCs [3]): > 95%

Source: patent US12628820B2, “Systems and methods for preservation of cells” (UNIVERSITY OF LOUISVILLE RESEARCH FOUNDATION, Inc., priority 2017, dated 2026)
